Data taken from patent US9254261B2, “Stable quick dissolving dosage form comprising amoxicillin and clavulanic acid” (Sandoz AG, priority 2014, dated 2016).

Experiment: Stability of potassium clavulanate alone and in binary mixtures with excipients, stressed storage 7 days at 60° C.
Type: physicochemical
Conditions: after storage 7 days at 60° C.; control sample, no excipient
Experimental: In particular, the effect of different excipients and different mixture preparation conditions on the stability of the active ingredients was analyzed. […] In addition, two sets of compatibility studies with various excipients were conducted to investigate the influence of excipients on the stability of clavulanic acid and amoxicillin in the final dosage form. In the first study, a total of eight binary (i.e. two component) mixtures were prepared, each combining: […] (a) silicified microcrystalline cellulose, (b) low moisture silicified microcrystalline cellulose, having a moisture content of less than about 3.0%, (c) crospovidone, or (d) mannitol. […] After storage at a temperature of about 60° C. for about 7 days, each of the mixtures was then assayed to determine the amount of active ingredient remaining. Similarly, in the second study, a total of eight binary mixtures were prepared, each combining: […] (a) silicified microcrystalline cellulose, (b) low moisture silicified microcrystalline cellulose, (c) crospovidone, or (d) colloidal silicon dioxide. […] Further, each of the binary mixtures in the second study was prepared in a reduced moisture environment at a normal relative humidity (RH) of less than 30%. After storage at a temperature of about 60° C. for about 7 days, each of the mixtures was then assayed to determine the amount of active ingredient remaining.

SMILES: O=C(O)[C@H]1/C(=C/CO)O[C@@H]2CC(=O)N21 [Clavulanic acid (CA), potassium clavulanate]
- Assay of clavulanic acid (%): 94%
